Experimental data: article PMC10148601 (Analytica Chimica Acta, 2023)
Entries after “also recorded” stand apart in the source; their conditions may differ. Bridge positions count the residues as written; N and C are the ends. Ends that are not written are not given here.

Tests used:
SARS-CoV-2 NP [1] = target: T1, SARS-CoV-2 NP (Severe acute respiratory syndrome coronavirus 2, UniProt P0DTC9)
SARS-CoV-2 NP [2] = target: T1, SARS-CoV-2 NP; remark: listed apart in the source
[3] = system: SARS-CoV-2 NP versus SARS-CoV NP, MERS-CoV NP, HCoV-OC43 NP, SARS-CoV-2 S1, S-RBD, MERS-CoV S1, VEGF165, HSA, AFP, CEA, BSA; type: binding; conditions: n = 3
SARS-CoV-2 NP [4] = target: T1, SARS-CoV-2 NP; remark: listed apart in the source

Sequence | Frequency among sequenced phage clones (SARS-CoV-2 NP [1]) | binding to SARS-CoV-2 NP (positive clone) (SARS-CoV-2 NP [2]) | relative affinity for NP (SARS-CoV-2 NP [2]) | specificity of binding [3] | binding specificity and affinity in words (SARS-CoV-2 NP [4])
ACGTKPTKFC (disulfide 2-10 (inferred)) [N1] | 6/26 | have the ability to bind to SARS-CoV-2 NP with a significant difference compared to the control (P < 0.001) | may have higher affinity for NP than the other clones | specifically recognizes SARS-CoV-2 NP; also recorded: binds specifically to SARS-CoV-2 NP; also recorded: has the best specificity | –
ACLKTYWYNC (disulfide 2-10 (inferred)) [N5] | 2/26 | have the ability to bind to SARS-CoV-2 NP with a significant difference compared to the control (P < 0.001) | may have higher affinity for NP than the other clones | can bind to either MERS-CoV NP, SARS-CoV NP, or HCoV-OC43 NP; also recorded: limited selectivity | –
ACGTKPTKFCGGGGGS (disulfide 2-10 (inferred)) [peptide probe N1] | – | – | – | – | binds to SARS-CoV-2 NP with good specificity and high affinity
ACTPRSANYC (disulfide 2-10 (inferred)) [N4] | 3/26 | – | – | can bind to either MERS-CoV NP, SARS-CoV NP, or HCoV-OC43 NP; also recorded: limited selectivity | –
